Literature values in patent US20060069068A1, “Methods and compositions for the treatment of diseases characterized by pathological calcification” (Nanobac Pharmaceuticals, Inc., priority 2004, published 2006).

Key:
[1] = both in vitro and in vivo; comparator etidronate
Nanobacteria = settings: background statement

Compound	potency relative to etidronate [1]	killing of Nanobacteria (Nanobacteria)
NCCCC(O)(P(=O)(O)O)P(=O)(O)O [alendronate]	approximately 700 fold	
Penicillin		cannot be killed
